The METLIN SMRT retention time set (Domingo-Almenara et al. 2019)

Test: gradient 5% acetonitrile 3 min, to 50% in 2 min, to 85% in 15 min, held 3 min, 100 µL/min
Conditions: column: Zorbax Extend-C18 2.1 x 50 mm; eluents: water / acetonitrile, 0.1% formic acid
Summary of the method: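 A Zorbax Extend-C18 column (2.1 × 50 mm, 1.8 μm) run at 100 μL/min with water and acetonitrile, both containing 0.1% formic acid, separated mixtures of ~100 pure standards. The HPLC was coupled to a quadrupole time-of-flight mass spectrometer operated in positive and negative ionization mode, with dead and dwell volumes of 40 μL and 900 μL. Each retention time was taken from a computationally picked adduct peak that was then manually inspected.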

| RP-LC retention time [s] | SMILES |
| --- | --- |
| 731 | O=C(NCC1CCCO1)C1CCN(Cc2cc3ccccc3n2Cc2ccccc2Cl)CC1 (stereo not drawn) |
| 951 | COc1ccc(NC(=O)Cn2cccc2-c2nnc(C3CCC3)o2)cc1Cl |
| 638 | COc1ccc(N2CC(C(=O)Nc3cc(C)nn3C3CCS(=O)(=O)C3)CC2=O)cc1 (stereo not drawn) |
| 648 | O=C(NCCn1ncccc1=O)c1csc(-c2ccccc2)n1 |
| 807 | Cn1nc(C(=O)N2CCCN(c3cc(-c4ccc(Br)cc4)[nH]n3)CC2)c2ccccc21 |
| 732 | CC(C)C(=O)Nc1ccc(C2(C(=O)NCCN3CCc4ccccc4C3)CCCCC2)cc1 |
| 928 | Cc1ccc(Oc2nccn3c(=O)n(CC(=O)NCCCc4ccccc4)nc23)cc1 |
| 893 | CC1CCN(S(=O)(=O)c2ccc3nn(Cc4ccccc4)c(=O)n3c2)CC1 |
| 668 | O=C(Cn1nc2c3ccccc3ncn2c1=O)Nc1ccc(F)cc1F |
| 695 | CCOC(=O)C1=C(CN2CCCC(c3ccccc3)C2)NC(=O)NC1c1cccc(OC)c1OC (stereo not drawn) |
| 846 | COc1ccc(CNC(=O)Cn2nc(C)c3sc(-c4ccccc4)nc3c2=O)cc1 |
| 1150 | CCOc1ccc(/C=C/C(=O)Nc2nc(-c3ccc(C)cc3)cs2)cc1OC |
| 769 | O=C(CCSc1ccccc1)Nc1cccc(-c2ccn[nH]2)c1 |
| 666 | COc1ccc(CNC(=O)COc2ccc(NC(=O)C3CC3)cn2)cc1OC |
| 917 | CCn1cc(-c2nc(-c3ccc(OCC(C)C)cc3)no2)c(=O)c2cc(F)c(N3CCOCC3)cc21 |
| 682 | COc1ccc(OC)c(NC(=O)c2cc(NC(=O)C3CCC3)cc3nc(C)ccc23)c1 |
| 1010 | COc1cccc(-c2noc(Cn3ccn4nc(-c5ccc(F)cc5)cc4c3=O)n2)c1OC |
| 654 | COc1ccc(OC)c(NC(=O)Cn2c(N3CCCC3)nc(C)cc2=O)c1 |
| 576 | O=C1CCCc2cc(S(=O)(=O)NCCCN3CCN(c4ccccc4)CC3)ccc2N1 |
| 941 | O=C(NCCS(=O)(=O)N1CCN(c2cccc(Cl)c2)CC1)c1cc2ccccc2o1 |
| 910 | Cc1ccc(S(=O)(=O)N2CCC(C(=O)NCc3csc(-c4cccs4)n3)CC2)cc1 |
| 582 | Cn1cc(-c2ccc3ncc(Cc4ccc5ncccc5c4)n3n2)cn1 |
| 635 | O=C(Cn1cc(-c2ccc(F)cc2)oc1=O)NCc1ccc(N2CCCCC2)cc1 |
| 1030 | CS(=O)(=O)N1CCC(C(=O)Nc2ccc(Oc3ccccc3)cc2)Oc2ccccc21 (stereo not drawn) |
| 950 | CCN1C(=O)C2(CCN(C(=O)C3CCCCC3)CC2)c2ccccc21 |
| 860 | COc1ccc(OC)c(S(=O)(=O)N2CCCN(C)c3ccccc32)c1 |

| RP-LC retention time [s] | SMILES |
| --- | --- |
| 797 | O=C(NC1CC1)[C@@H]1C[C@H](Oc2ccccc2)CN1C(=O)COc1ccccc1 |
| 644 | Cc1ccc(CNC(=O)C2CCN(c3cn[nH]c(=O)c3)CC2)cc1 |
| 651 | CN(C)c1cc(C(=O)Nc2ccccc2)c2ccccc2n1 |
| 1170 | O=S(=O)(c1cccc(Cl)c1)N1CCc2nc(-c3ccccc3)ncc2C1 |
| 564 | CS(=O)(=O)Nc1cccc(NC(=O)C2CCN(CC(=O)Nc3ccc(F)cc3)CC2)c1 |
| 597 | Cc1ccc(-c2ccc(=O)n(Cc3nc(-c4ccc(OC(C)C)cc4)no3)n2)cc1 |
| 1040 | O=C(NCc1ccc(C(F)(F)F)cc1)C1CCCN(c2nccnc2Oc2ccccc2)C1 (stereo not drawn) |
| 700 | COc1ccccc1NC(=O)Nc1c(-c2cccc(C)c2)nc2ccccn12 |
| 675 | COc1ccc(OC)c(S(=O)(=O)Nc2ccc3c(c2)CCC(=O)N3C)c1 |
| 1080 | O=S(=O)(c1cccc(-c2nnc(-c3ccc(F)cc3)o2)c1)N1CCCCC1 |
| 978 | Cn1ncc2c(Nc3cccc(Cl)c3)nc(N3CCCC3)nc21 |
| 1200 | COc1ccccc1N1CCN(S(=O)(=O)c2cc(-c3cc(C(F)(F)F)on3)cs2)CC1 |
| 602 | O=C(NCCCN1CCOCC1)c1nc2ccccn2c1-c1ccc(F)cc1 |
| 1190 | O=C(Nc1cccc(Br)c1)N1CCc2nc(-c3ccc(Cl)cc3)ncc2C1 |
| 879 | CCOc1ccc(-n2ccn3cc(-c4ccc(C)cc4)nc3c2=O)cc1 |
| 1150 | CCCN1C(=O)COc2ccc(-c3noc(CCc4ccccc4)n3)cc21 |
| 719 | CC(C)NC(=O)c1cccc(Nc2c(-c3ccccc3)nc3cnccn23)c1 |
| 772 | CCC(C)C(NC(=O)Cc1ccc(OC)cc1Cl)C(=O)Nc1nc2ccccc2[nH]1 (stereo not drawn) |
| 662 | CN(C)c1ccc(CN2C(=O)CN(S(C)(=O)=O)CC2(C)C(=O)NCc2ccc(Cl)cc2)cc1 (stereo not drawn) |
| 863 | CCCc1nnsc1C(=O)NCC1CCN(C(=O)Oc2ccccc2)CC1 |
| 592 | COc1ccc(-c2nc(NCCN(C)C3CCCCC3)c3ccccc3n2)cc1 |
| 1110 | O=S(=O)(c1ccccc1)N1CCC(c2noc(-c3cccc(F)c3)n2)CC1 |
| 603 | COCCNC(=O)c1ccc(-c2ccc(N3CCCCC3)nc2)cc1 |
| 937 | O=[N+]([O-])c1ccc(CSc2nnc(-c3cccc(S(=O)(=O)N4CCCC4)c3)o2)cc1 |
| 837 | COc1cccc(CNC2=NCCNC23CCN(S(=O)(=O)c2ccc(C(C)(C)C)cc2)CC3)c1 |

The remaining lines, values behind:

| SMILES | RP-LC retention time [s] |
| --- | --- |
| CCn1c(C2CCN(S(=O)(=O)Cc3ccc(F)cc3Cl)C2)nc2ccncc21 (stereo not drawn) | 561 |
| CCc1ccc(NC(=O)CCS(=O)(=O)c2ccc3c(c2)CCCN3C(C)=O)cc1 | 808 |
| N#CCCN(CCC#N)c1ccc(/C=C2\N=C(c3cc([N+](=O)[O-])ccc3Cl)OC2=O)cc1 | 1010 |
| Cc1cc(=O)n(CC(=O)Nc2ccc3c(c2)OCCO3)c(N2CCCC2)n1 | 620 |
| Cc1ccc(C)c(N2CCN(Cc3nc(-c4ccc(N5CCOCC5)nc4)no3)CC2)c1 | 949 |
| CC1Oc2ccc(S(=O)(=O)N3CCC(C(=O)Nc4cccc(Cl)c4)CC3)cc2NC1=O (stereo not drawn) | 891 |
| CCc1nnc([C@@H]2CC(F)(F)CN2C(=O)Cn2ccc(C)n2)o1 | 646 |
| Cc1cc(-c2nnc(NC(=O)C3CCCN(S(=O)(=O)c4cccs4)C3)o2)nn1C (stereo not drawn) | 696 |
| CCOc1cc(=O)n2c(c1C(=O)NC1CCCC1)CCCCC2 | 671 |
| Cc1cccc(-c2nc(Cn3nnc(-c4nc(-c5ccncc5)no4)c3C)c(C)o2)c1 | 1070 |
| CS(=O)(=O)Oc1ccc(Br)c2cccnc12 | 889 |
| CCCc1noc(-c2ccc3nnc(CC(=O)Nc4ccc(F)c(C)c4)n3c2)n1 | 921 |
| Cc1cccc(NS(=O)(=O)c2cc3n(c2)CCN(CC(C)C)C3=O)c1 | 808 |
| O=C(CCc1nnn2c1CN(C(=O)COc1ccc(F)cc1)CC2)N1CCCC1 | 665 |
| CCSc1nnc(NC(=O)CSC2=NN3CCCC(=O)N=C3S2)s1 | 683 |
| CCC(=O)N1CCc2cc(N3CC(C(=O)Nc4ccc(F)c(F)c4)CC3=O)ccc21 (stereo not drawn) | 690 |
| Cn1nccc1-c1cccc(-c2noc(-c3cccc(Br)c3)n2)c1 | 1300 |
| CC1=NS(=O)(=O)N(Cc2ccccc2)C=C1C(=O)OCc1cc(F)ccc1F | 1080 |
| CN1CC=C(c2noc(CCC(=O)NCc3ccc4c(c3)OCO4)n2)CC1 | 587 |

| SMILES | RP-LC retention time [s] |
| --- | --- |
| COC1CCOC2(CCN(C(=O)c3cccs3)CC2)C1 (stereo not drawn) | 703 |
| O=C(NCc1cccs1)C1CCCN(c2nnc3c(Cl)cccn23)C1 (stereo not drawn) | 684 |
| CCOC(=O)C1CCN(c2cc3c(cc2NC(=O)NC(C)CC)n(C)c(=O)n3C)CC1 (stereo not drawn) | 778 |
| Cc1ccc(C(=O)NCCn2c(C)cnc2C)s1 | 589 |
| O=C(CSc1ccc(-n2ccnc2)nn1)N1CCc2ccccc21 | 578 |
| CC(C)N1C(=O)C(C)N(C(=O)NC2CCCC2)c2cccnc21 (stereo not drawn) | 924 |
| CC(C(=O)Nc1cccc(Cl)c1)C1CCN(C(=O)Nc2ccc(F)cc2)CC1 (stereo not drawn) | 933 |
| O=C(C1CC1)N1CCc2sc(S(=O)(=O)N3CCN(c4ccccc4)CC3)cc2C1 | 987 |
| CNC(=O)c1[nH]c2ccc(F)cc2c1N1CCCC1=O | 658 |
| Cc1nc(CC(=O)Nc2nc(-c3cccc(Cl)c3)c(C)s2)cs1 | 994 |
| CCOC(=O)c1c(S(=O)(=O)N2CCC(C(=O)Nc3cccc(SC)c3)CC2)c(C)n(C)c1C | 907 |
| Cc1ccc(NC(=O)C2CCCN(c3ncnc4c3nc3n4CCCCC3)C2)c(Br)c1 (stereo not drawn) | 930 |
| CC(=O)NCc1ccc(-c2noc(-c3ccc(F)c(Cl)c3)n2)s1 | 955 |
| Cc1ccc(N2C(=O)N(Cc3ccc(F)cc3)S(=O)(=O)c3cccnc32)cc1 | 1080 |
| O=C(NC1CC1)C1(F)CCN(S(=O)(=O)c2ccccc2)CC1 | 673 |
| Cn1ncc2c(Nc3ccc([N+](=O)[O-])cc3)nc(Cl)nc21 | 963 |
| CCOC(=O)c1[nH]c(C)c(CCC(=O)Nc2ccc3c(c2)OCO3)c1C | 819 |
| COC1CCC12CCN(C(=O)CNC(C)=O)CC2 (stereo not drawn) | 607 |
